Assay results as given in patent publication US10188650B2, “Treatment of neurological disorders” (THE REGENTS OF THE UNIVERSITY OF MICHIGAN, priority 2014, dated 2019).
“Also recorded” adds a separate entry of the source.

Tests used:
P-glycoprotein = P-glycoprotein (Homo sapiens, UniProt P08183); details: cited from earlier work
[1] = pediatric patient studies; cited from earlier work
[2] = test system: dFMRP mutant C4da neurons; assay: Axon terminal overgrowth in dFMRP mutants (Fragile X Syndrome model), larvae fed drug; format: in vivo, Drosophila; details: larvae raised with nilotinib 4 days; vehicle-fed mutants 130%
From the text: The MARCM technique was used to generate and visualize single axon terminals of mutant C4da neurons. […] FIG. 10c summarizes the data from FIG. 6, FIG. 10A and FIG. 10B relating to quantification of the axon terminal length of the indicated genotype and drug treatment. […] Scale bar is 10 μm. Two-way Student's t-test was used for statistical analysis. *: p<0.05; **: p<0.01; ***: p<0.001; ****; p<0.0001.
The MARCM technique was used to generate and label C4da neurons homozygous for abl^1 or abl^4 mutations and C4da neurons overexpressing Dscam[TM2]:GFP. MARCM clones were induced as previously described in Ye et al. (2011) Journal of Neuroscience 31: 3309-3319. Confocal images were collected and analyzed as described in Kim et al. (2013) Neuron 78: 827-838. The MARCM technique was used to visualize single neurons homozygous for abl^1, abl^4, or dFMRP^Δ50 and overexpressing Dscam[3.36.25.2]:GFP as previously described (Kim, et al., 2013).
(§1) Sample preparation, imaging, and quantification were then completed as described above.
Fragile X Syndrome (FXS) is caused by an absence of Fragile X mental retardation protein (FMRP) (Kremer, et al. (1991) Science 252: 1711-14), and is modeled in Drosophila using loss-of-function mutants for the Drosophila homolog of […], dFMRP (Zhang, et al. (2001) Cell 107:591-603; Dockendorff, et al. (2002) Neuron 34: 973-84).

[3] = test system: C4da neurons overexpressing Dscam; assay: Axon terminal overgrowth induced by Dscam overexpression in single C4da neurons (MARCM), larvae fed drug; format: in vivo, Drosophila; details: larvae reared in food containing 380 μM nilotinib (figure legend: 0.4 mM), 4 days
From the text: The genetic technique MARCM was used to express the Dscam transgene in single C4da neurons and to label the morphology of the axon terminals.
The MARCM technique was used to generate and label C4da neurons homozygous for abl^1 or abl^4 mutations and C4da neurons overexpressing Dscam[TM2]:GFP.
Antibodies used include chicken anti-GFP (Ayes) and rabbit anti-RFP (Rockland). Samples were dehydrated and mounted with DPX mounting media (Electron Microscopy Sciences). Confocal imaging was completed with a Leica SP5 confocal system equipped with a resonant scanner and 63× oil-immersion lens (NA=1.40).
as §1
In particular, the genetic mosaic analysis MARCM was used to express the Dscam transgene in single C4da neurons and to label the morphology of the axon terminals. […] Expression of Dscam transgene was achieved by the C4da-specific driver ppk-Gal4 and UAS-Dscam::GFP transgenes. […] Dscam expression levels (GFP intensity) were measured from the C4da neuron cell body.

Drosophila Abl = target: T1, Drosophila Abl (Drosophila melanogaster, UniProt P00522); assay: Abl activity in Schneider 2 cells expressing Drosophila Abl, western blot with anti-phospho-Y412-Abl antibody; format: cell-based; details: nilotinib 5 μM, 6 hours, S2 cells expressing Drosophila Abl
T1 construct: the full-length cDNA of Drosophila Abl was obtained by ligating two fragments; Myc; expressed in transfected cells; host or cells: Drosophila Schneider 2 (S2) cells
T1 sequence (P00522 whole entry, the tested form may be a part): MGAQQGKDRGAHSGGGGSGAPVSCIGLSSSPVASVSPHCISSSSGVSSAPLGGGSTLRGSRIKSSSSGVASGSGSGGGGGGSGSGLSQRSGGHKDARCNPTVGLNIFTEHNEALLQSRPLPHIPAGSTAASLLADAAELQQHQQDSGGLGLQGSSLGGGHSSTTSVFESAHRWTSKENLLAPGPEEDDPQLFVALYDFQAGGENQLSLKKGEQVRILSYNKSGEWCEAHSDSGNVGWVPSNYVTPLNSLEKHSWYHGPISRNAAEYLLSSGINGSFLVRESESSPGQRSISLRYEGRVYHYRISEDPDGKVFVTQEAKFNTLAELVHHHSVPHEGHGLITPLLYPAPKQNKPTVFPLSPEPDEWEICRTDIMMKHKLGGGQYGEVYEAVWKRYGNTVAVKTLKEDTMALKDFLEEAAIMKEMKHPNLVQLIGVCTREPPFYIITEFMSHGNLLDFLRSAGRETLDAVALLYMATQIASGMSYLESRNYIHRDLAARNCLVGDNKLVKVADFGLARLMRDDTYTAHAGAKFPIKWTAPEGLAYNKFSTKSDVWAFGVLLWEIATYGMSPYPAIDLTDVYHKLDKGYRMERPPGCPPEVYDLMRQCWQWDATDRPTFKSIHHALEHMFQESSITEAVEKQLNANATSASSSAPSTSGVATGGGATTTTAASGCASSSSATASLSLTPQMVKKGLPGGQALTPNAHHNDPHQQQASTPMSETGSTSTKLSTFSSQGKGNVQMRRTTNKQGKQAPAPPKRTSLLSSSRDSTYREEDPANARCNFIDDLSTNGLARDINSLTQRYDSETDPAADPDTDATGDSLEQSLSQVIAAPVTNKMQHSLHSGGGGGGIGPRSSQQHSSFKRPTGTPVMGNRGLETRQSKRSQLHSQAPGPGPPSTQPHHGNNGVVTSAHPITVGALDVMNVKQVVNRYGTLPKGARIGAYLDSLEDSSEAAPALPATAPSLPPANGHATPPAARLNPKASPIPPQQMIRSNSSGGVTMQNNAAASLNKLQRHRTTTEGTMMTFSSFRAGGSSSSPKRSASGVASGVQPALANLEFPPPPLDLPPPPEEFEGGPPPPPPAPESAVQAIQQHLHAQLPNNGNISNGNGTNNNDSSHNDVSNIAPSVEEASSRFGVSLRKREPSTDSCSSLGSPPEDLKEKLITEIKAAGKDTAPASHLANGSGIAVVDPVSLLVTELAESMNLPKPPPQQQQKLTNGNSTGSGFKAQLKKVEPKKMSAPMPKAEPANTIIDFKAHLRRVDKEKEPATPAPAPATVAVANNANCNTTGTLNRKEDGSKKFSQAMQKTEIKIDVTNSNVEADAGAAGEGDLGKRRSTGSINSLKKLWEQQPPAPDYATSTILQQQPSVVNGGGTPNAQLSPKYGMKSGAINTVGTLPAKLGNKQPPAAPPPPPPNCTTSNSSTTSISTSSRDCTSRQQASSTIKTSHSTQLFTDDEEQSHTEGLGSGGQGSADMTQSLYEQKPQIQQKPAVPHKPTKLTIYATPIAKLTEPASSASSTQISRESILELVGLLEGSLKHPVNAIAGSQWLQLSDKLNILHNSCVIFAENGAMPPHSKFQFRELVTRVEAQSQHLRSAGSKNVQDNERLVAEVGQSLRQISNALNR
Method: Abl activity was assessed by western blotting analysis with an anti-phospho-Y412-Abl antibody.
Drosophila Schneider 2 cells were maintained in Drosophila Schneider's medium (Life Technologies) supplemented with 10% fetal bovine serum (Sigma-Aldrich, St. Louis, Mo.) in a humidified atmosphere at 26° C. Cells grown on tissue culture plates were transfected with Lipofectamine 2000 (Life Technologies) according to manufacturer's recommendation. Cells were harvested two days after transfection, lysed in SDS sample buffer, and subjected to western blot analysis. In some experiments, cells were transfected with indicated DNA constructs together with tubulin-Gal4 (Lee and Luo, 2001) by using Lipofectamine 2000 (Invitrogen) according to manufacturer's protocol.
Western blot analysis was performed as follows.
as §1
During the development of embodiments of the technology provided herein, experiments were performed to assess the effects of Abl kinase inhibitors on Dscam-induced axonal overgrowth. […] Abl activity was assessed by western blotting analysis with an anti-phospho-Y412-Abl antibody.

[4] = human, oral capsule; cited from earlier work
OCT1 = target: T2, OCT1 (Homo sapiens, UniProt O15245); details: entry into cell cytoplasm; cited from earlier work
T2 sequence (O15245 1-554): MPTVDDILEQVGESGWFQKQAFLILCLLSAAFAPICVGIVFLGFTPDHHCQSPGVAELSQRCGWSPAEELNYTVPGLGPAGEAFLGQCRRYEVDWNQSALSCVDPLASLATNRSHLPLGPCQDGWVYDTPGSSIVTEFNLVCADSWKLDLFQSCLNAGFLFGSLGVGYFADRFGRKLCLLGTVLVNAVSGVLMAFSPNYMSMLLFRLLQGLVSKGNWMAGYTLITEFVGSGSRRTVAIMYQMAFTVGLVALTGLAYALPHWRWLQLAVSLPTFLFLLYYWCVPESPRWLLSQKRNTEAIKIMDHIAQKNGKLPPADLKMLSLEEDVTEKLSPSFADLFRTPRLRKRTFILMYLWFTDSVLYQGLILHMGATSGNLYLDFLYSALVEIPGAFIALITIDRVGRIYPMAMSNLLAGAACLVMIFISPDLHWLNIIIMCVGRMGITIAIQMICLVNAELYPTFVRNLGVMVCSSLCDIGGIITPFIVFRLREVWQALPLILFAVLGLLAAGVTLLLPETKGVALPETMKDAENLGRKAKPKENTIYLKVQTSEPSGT

Human pharmacokinetics = format: in vivo; details: estimated

Sequence of P-glycoprotein (P08183 whole entry): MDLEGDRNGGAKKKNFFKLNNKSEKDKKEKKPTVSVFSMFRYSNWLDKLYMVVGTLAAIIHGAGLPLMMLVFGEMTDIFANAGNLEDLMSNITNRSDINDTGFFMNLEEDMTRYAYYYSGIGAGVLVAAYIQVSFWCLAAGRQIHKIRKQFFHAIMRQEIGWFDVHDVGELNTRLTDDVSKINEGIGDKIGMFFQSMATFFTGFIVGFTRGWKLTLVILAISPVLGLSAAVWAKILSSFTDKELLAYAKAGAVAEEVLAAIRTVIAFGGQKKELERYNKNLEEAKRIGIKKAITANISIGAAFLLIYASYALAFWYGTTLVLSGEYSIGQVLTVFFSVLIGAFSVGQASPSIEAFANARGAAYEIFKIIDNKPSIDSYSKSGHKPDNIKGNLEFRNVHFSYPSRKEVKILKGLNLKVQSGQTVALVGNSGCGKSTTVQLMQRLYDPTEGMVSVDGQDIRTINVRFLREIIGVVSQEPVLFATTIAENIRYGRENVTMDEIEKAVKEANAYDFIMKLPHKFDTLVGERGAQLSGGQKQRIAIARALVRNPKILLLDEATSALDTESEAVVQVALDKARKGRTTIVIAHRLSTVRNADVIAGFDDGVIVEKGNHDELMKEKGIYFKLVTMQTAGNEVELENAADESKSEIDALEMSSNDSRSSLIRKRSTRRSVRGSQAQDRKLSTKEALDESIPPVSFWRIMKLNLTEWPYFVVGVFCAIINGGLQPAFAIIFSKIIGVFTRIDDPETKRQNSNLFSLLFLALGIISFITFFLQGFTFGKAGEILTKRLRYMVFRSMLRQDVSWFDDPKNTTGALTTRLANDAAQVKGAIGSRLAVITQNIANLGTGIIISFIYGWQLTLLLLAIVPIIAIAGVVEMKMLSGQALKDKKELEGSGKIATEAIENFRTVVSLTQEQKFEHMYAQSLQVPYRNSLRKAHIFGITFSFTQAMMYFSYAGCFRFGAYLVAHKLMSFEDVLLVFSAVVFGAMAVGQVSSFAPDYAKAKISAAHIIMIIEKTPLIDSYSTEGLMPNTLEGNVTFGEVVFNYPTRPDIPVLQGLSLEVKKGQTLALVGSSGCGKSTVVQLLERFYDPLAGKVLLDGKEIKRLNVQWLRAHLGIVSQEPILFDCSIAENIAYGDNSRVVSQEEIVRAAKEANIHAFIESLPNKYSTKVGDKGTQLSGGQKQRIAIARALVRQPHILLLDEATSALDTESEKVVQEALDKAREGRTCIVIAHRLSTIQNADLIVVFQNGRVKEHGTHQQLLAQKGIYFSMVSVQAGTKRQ

SMILES	substrate for the efflux transporter P-glycoprotein pump (P-glycoprotein)	tolerance in children [1]	axon terminal length in dFMRP mutants [2]	Dscam-induced axon terminal overgrowth [3]	Abl activity (phospho-Y412-Abl) (Drosophila Abl)	bioavailability [4]	influx dependent on OCT1 (OCT1)	concentration in a human (Human pharmacokinetics)
Cc1nc(Nc2ncc(C(=O)Nc3c(C)cccc3Cl)s2)cc(N2CCN(CCO)CC2)n1 [Dasatinib]	not a substrate	good tolerance						
Cc1cn(-c2cc(NC(=O)c3ccc(C)c(Nc4nccc(-c5cccnc5)n4)c3)cc(C(F)(F)F)c2)cn1 [nilotinib, 4-methyl-N-[3-(4-methyl-1-H-imidazol-1-yl)-5-(trifluoromethyl)phenyl]-3-[(4-pyridin-3-ylpyrimidin-2-yl)amino]benzamide]	not a substrate		103 % of control	nearly completely suppressed; also recorded: suppresses axon terminal overgrowth	completely suppressed	approximately 30%	is not	approximately 1.3 μmol/liter
Cc1ccc(NC(=O)c2ccc(CN3CCN(C)CC3)cc2)cc1Nc1nccc(-c2cccnc2)n1 [imatinib]	substrate							
